Laboratory results: ChEMBL document CHEMBL3627701, “(2-Arylethenyl)-1,3,5-triazin-2-amines as a novel histamine H4 receptor ligands” (Eur J Med Chem, 2015)
Each block holds one molecule with its values, some of them ahead of it. The source made the active and inactive calls. The rule behind the calls is not given here.

Assays:
Mus musculus [1] = assay: Antiinflammatory activity in albino Swiss mouse assessed as inhibition of carrageenan-induced paw edema at 25 mg/kg, po administered prior to carrageenan challenge measured after 1 to 3 hrs by plethysmometry relative to control; type: functional
Mus musculus [2] = assay: Antiinflammatory activity in albino Swiss mouse assessed as inhibition of carrageenan-induced paw edema at 50 mg/kg, po administered prior to carrageenan challenge measured after 1 to 3 hrs by plethysmometry relative to control; type: functional
Histamine H4 receptor [3] = biological target: T1, Histamine H4 receptor (Homo sapiens, UniProt Q9H3N8); assay: Antagonist activity at human H4R expressed in CHO cells assessed as inhibition of forskolin-induced cAMP accumulation after 30 mins by TR-FRET immunoassay; type: functional, cell-based
Histamine H4 receptor [4] = biological target: T1, Histamine H4 receptor; assay: Displacement of [3H]histamine from human H4 receptor expressed in Sf9 cell membranes co-expressing Galphai2 and Gbeta1gamma2 after 60 mins by liquid scintillation counting assay; type: cell-based
[5] = biological target: Histamine H3 receptor (Homo sapiens) (UniProt Q9Y5N1); assay: Displacement of [3H]-N-alpha-methylhistamine from human H3 receptor expressed in HEK293 cells at >=30 uM after 60 mins by liquid scintillation counter assay; type: cell-based
Mus musculus [6] = assay: Antiinflammatory activity in albino Swiss mouse assessed as inhibition of carrageenan-induced paw edema at 50 mg/kg, po administered prior to carrageenan challenge measured after 2 hrs by plethysmometry relative to control; type: functional
Mus musculus [7] = assay: Antiinflammatory activity in albino Swiss mouse assessed as inhibition of carrageenan-induced paw edema at 10 mg/kg, po administered prior to carrageenan challenge measured after 2 hrs by plethysmometry relative to control; type: functional
Mus musculus [8] = assay: Antiinflammatory activity in albino Swiss mouse assessed as inhibition of carrageenan-induced paw edema at 25 mg/kg, po administered prior to carrageenan challenge measured after 1 hr by plethysmometry relative to control; type: functional
Mus musculus [9] = assay: Antiinflammatory activity in albino Swiss mouse assessed as inhibition of carrageenan-induced paw edema at 25 mg/kg, po administered prior to carrageenan challenge measured after 2 hrs by plethysmometry relative to control; type: functional
Mus musculus [10] = assay: Antiinflammatory activity in albino Swiss mouse assessed as inhibition of carrageenan-induced paw edema at 50 mg/kg, po administered prior to carrageenan challenge measured after 1 hr by plethysmometry relative to control; type: functional
Mus musculus [11] = assay: Antiinflammatory activity in albino Swiss mouse assessed as inhibition of carrageenan-induced paw edema at 50 mg/kg, po administered prior to carrageenan challenge measured after 3 hrs by plethysmometry relative to control; type: functional
Mus musculus [12] = assay: Antiinflammatory activity in albino Swiss mouse assessed as inhibition of carrageenan-induced paw edema at 10 mg/kg, po administered prior to carrageenan challenge measured after 1 hr by plethysmometry relative to control; type: functional
Mus musculus [13] = assay: Antiinflammatory activity in albino Swiss mouse assessed as inhibition of carrageenan-induced paw edema at 25 mg/kg, po administered prior to carrageenan challenge measured after 3 hrs by plethysmometry relative to control; type: functional
Mus musculus [14] = assay: Antiinflammatory activity in albino Swiss mouse assessed as inhibition of carrageenan-induced paw edema at 10 mg/kg, po administered prior to carrageenan challenge measured after 3 hrs by plethysmometry relative to control; type: functional
Liver microsome [15] = assay: Retention time in human liver microsomes at 50 uM after 48 hrs by LC-MS analysis; type: ADME
Liver microsome [16] = assay: Drug level in human liver microsomes treated with 50 uM 4-[(E)-2-(3-chlorophenyl)ethenyl]-6-(4-methylpiperazin-1-yl)-1,3,5-triazin-2-amine assessed as compound formation after 48 hrs by LC-MS analysis; type: ADME
[17] = Antiproliferative activity against human IMR32 cells assessed as inhibition of cell viability after 48 hrs; type: cell-based; settings: IMR-32, 48 h
Liver microsome [18] = assay: Drug metabolism in human liver microsomes assessed as metabolite M1 formation at 50 uM after 48 hrs by LC-MS analysis; type: ADME
Liver microsome [19] = assay: Drug metabolism in human liver microsomes assessed as metabolite M2 formation at 50 uM after 48 hrs by LC-MS analysis; type: ADME
CYP3A4 = CYP3A4 (Homo sapiens, UniProt P08684); assay: Inhibition of human recombinant CYP3A4 assessed as conversion of luciferin-PPXE to D-luciferin at 25 uM by luminescence Glo assay relative to control; type: ADME; settings: recombinant CYP3A4, probe luciferin-PPXE
HEK293 = assay: Antiproliferative activity against HEK293 cells assessed as inhibition of cell viability at 0.01 to 250 uM after 48 hrs; type: cell-based; settings: human, hek293, 48 h
[20] = Ratio of IC50 for doxorubicin to antiproliferative activity for test compound against human IMR32 cells; type: cell-based, IMR-32; settings: read-out: Ratio IC50
Salmonella typhimurium = assay: Genotoxicity in Salmonella typhimurium TA98 at 1 to 100 uM after 48 hrs by MPF assay; type: toxicity, organism-based; settings: salmonella enterica subsp. enterica serovar typhimurium
Mus musculus [21] = assay: Antiinflammatory activity in albino Swiss mouse assessed as inhibition of carrageenan-induced paw edema at 10 mg/kg, po administered prior to carrageenan challenge measured after 1 to 3 hrs by plethysmometry relative to control; type: functional
Histamine H4 receptor [22] = biological target: T2, Histamine H4 receptor (Mus musculus, UniProt Q91ZY2); assay: Displacement of [3H]histamine from mouse H4 receptor expressed in HEK293 cell membranes co-expressing Galphai2 and Gbeta1gamma2 after 1 hr by liquid scintillation counting assay
T2 sequence (Q91ZY2 whole entry): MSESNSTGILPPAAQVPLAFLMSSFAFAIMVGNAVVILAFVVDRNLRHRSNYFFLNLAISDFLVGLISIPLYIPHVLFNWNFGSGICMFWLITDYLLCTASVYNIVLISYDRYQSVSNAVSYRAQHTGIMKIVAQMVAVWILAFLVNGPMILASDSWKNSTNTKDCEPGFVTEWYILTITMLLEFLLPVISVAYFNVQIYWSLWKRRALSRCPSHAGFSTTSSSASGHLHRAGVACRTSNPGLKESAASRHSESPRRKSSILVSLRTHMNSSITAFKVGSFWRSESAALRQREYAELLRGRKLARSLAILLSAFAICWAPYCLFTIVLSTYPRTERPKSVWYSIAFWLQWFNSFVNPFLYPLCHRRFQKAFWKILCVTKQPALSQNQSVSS

[23] = Antiproliferative activity against human IMR32 cells assessed as inhibition of cell viability at 0.01 to 250 uM after 48 hrs; type: cell-based; settings: imr-32, 48 h

Sequence of Histamine H3 receptor (Homo sapiens) (Q9Y5N1 whole entry): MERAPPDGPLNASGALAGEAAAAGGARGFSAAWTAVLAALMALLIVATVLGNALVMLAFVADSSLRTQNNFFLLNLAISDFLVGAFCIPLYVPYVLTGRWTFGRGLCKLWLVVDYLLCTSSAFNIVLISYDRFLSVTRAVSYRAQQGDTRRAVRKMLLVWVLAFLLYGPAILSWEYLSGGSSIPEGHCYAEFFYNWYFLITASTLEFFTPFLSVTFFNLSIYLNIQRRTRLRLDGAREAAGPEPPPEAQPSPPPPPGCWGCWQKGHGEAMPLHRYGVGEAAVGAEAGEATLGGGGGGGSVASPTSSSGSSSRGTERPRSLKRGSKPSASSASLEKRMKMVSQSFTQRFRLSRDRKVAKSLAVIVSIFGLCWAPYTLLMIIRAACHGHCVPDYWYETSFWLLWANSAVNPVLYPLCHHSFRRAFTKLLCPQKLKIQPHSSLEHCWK
Sequence of CYP3A4 (P08684 whole entry): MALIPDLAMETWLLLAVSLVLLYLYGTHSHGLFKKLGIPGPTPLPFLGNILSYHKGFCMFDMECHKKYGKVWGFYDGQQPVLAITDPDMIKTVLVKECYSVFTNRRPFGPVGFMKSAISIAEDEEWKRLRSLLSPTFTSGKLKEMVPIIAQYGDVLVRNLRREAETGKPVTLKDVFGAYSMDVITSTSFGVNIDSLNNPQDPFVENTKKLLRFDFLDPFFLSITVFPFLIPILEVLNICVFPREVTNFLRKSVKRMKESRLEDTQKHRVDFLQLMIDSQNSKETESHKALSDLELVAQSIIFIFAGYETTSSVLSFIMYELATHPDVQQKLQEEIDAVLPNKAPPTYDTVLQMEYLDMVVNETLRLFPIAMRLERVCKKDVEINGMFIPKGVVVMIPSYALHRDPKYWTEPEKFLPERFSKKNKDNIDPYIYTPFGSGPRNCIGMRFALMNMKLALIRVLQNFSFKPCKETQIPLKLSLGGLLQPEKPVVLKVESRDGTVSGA

SMILES: CC(C(=O)O)c1cccc(C(=O)c2ccccc2)c1 (stereo unspecified) [KETOPROFEN]
inhibition in vivo at 50 mg/kg (Mus musculus [6]): 71%
inhibition in vivo at 10 mg/kg (Mus musculus [7]): 55%
inhibition in vivo at 25 mg/kg (Mus musculus [8]): 20%
inhibition in vivo at 25 mg/kg (Mus musculus [9]): 54%
inhibition in vivo at 50 mg/kg (Mus musculus [10]): 67%
inhibition in vivo at 50 mg/kg (Mus musculus [11]): 77%
inhibition in vivo at 10 mg/kg (Mus musculus [12]): 27%
inhibition in vivo at 25 mg/kg (Mus musculus [13]): 67%
inhibition in vivo at 10 mg/kg (Mus musculus [14]): 63%

SMILES: Cc1ccc(/C=C/c2nc(N)nc(N3CCN(C)CC3)n2)cc1
Ki (Histamine H4 receptor [4]): 37.4 µM

SMILES: Nc1nc(/C=C/c2cccc(Cl)c2)nc(N2CCNCC2)n1
Retention_time (Liver microsome [15]): 3.55 min
Drug metabolism (Liver microsome [16]): metabolite_detected

SMILES: COc1cccc2c1C(=O)c1c(O)c3c(c(O)c1C2=O)C[C@@](O)(C(=O)CO)C[C@@H]3O[C@H]1C[C@H](N)[C@H](O)[C@H](C)O1 [DOXORUBICIN]
IC50 [17]: 0.0051 µM

SMILES: CN1CCN(c2nc(N)nc(/C=C/c3ccccc3)n2)CC1
Ki (Histamine H4 receptor [4]): 5.21 µM

SMILES: CN1CCN(c2nc(N)nc(/C=C/c3ccc(Cl)cc3)n2)CC1
Ki (Histamine H4 receptor [4]): 4.21 µM

SMILES: CN1CCN(c2nc(N)nc(/C=C/c3ccc4ccccc4c3)n2)CC1
Ki (Histamine H4 receptor [4]): 3.79 µM

SMILES: CN1CCN(c2nc(N)nc(/C=C/c3ccccc3Cl)n2)CC1
Ki (Histamine H4 receptor [4]): 4.86 µM

SMILES: CN1CCN(c2nc(N)nc(/C=C/c3cccc4ccccc34)n2)CC1
Ki (Histamine H4 receptor [4]): 30 µM

SMILES: CN1CCN(c2nc(N)nc(/C=C/c3ccc(Cl)cc3Cl)n2)CC1
Ki (Histamine H4 receptor [4]): 9.04 µM

Second part, led by results:

IC50 (Histamine H4 receptor [3]): 0.606 µM
Ki (Histamine H4 receptor [4]): 0.703 µM
inhibition [5]: Active
SMILES: Cc1cccc(/C=C/c2nc(N)nc(N3CCN(C)CC3)n2)c1
inhibition in vivo at 25 mg/kg (Mus musculus [1]): 53%
inhibition in vivo at 50 mg/kg (Mus musculus [2]): 88%

Ki (Histamine H4 receptor [4]): 2.52 µM
SMILES: CN1CCN(c2nc(N)nc(/C=C/c3c[nH]c4ccccc34)n2)CC1

Ki (Histamine H4 receptor [4]): 1.14 µM
SMILES: CN1CCN(c2nc(N)nc(/C=C/c3cccc(Br)c3)n2)CC1

Ki (Histamine H4 receptor [4]): 2.45 µM
SMILES: CN1CCN(c2nc(N)nc(/C=C/c3cccc(C(F)(F)F)c3)n2)CC1

Ki (Histamine H4 receptor [4]): 1.78 µM
SMILES: CN1CCN(c2nc(N)nc(/C=C/c3ccc(Cl)c(Cl)c3)n2)CC1

Ki (Histamine H4 receptor [4]): 2.23 µM
SMILES: Cc1ccccc1/C=C/c1nc(N)nc(N2CCN(C)CC2)n1

Ki (Histamine H4 receptor [4]): 2.57 µM
SMILES: CN1CCN(c2nc(N)nc(/C=C/c3cccc([N+](=O)[O-])c3)n2)CC1

Ki (Histamine H4 receptor [4]): 2.64 µM
SMILES: CN1CCN(c2nc(N)nc(/C=C/c3cccc(C#N)c3)n2)CC1

Drug metabolism (Liver microsome [18]): metabolite_detected
Drug metabolism (Liver microsome [19]): metabolite_detected
Retention_time (Liver microsome [15]): 3.63 min
IC50 (Histamine H4 receptor [3]): 0.439 µM
inhibition at 25 µM (CYP3A4): 58%
Ki (Histamine H4 receptor [4]): 0.253 µM
Ki (Histamine H4 receptor [22]): 0.854 µM
inhibition [5]: Active
SMILES: CN1CCN(c2nc(N)nc(/C=C/c3cccc(Cl)c3)n2)CC1
inhibition in vivo at 50 mg/kg (Mus musculus [6]): 62%
inhibition in vivo at 25 mg/kg (Mus musculus [8]): 59%
inhibition in vivo at 25 mg/kg (Mus musculus [9]): 58%
inhibition in vivo at 50 mg/kg (Mus musculus [10]): 69%
Activity (HEK293): Non-toxic
selectivity ratio [20]: > 1000
inhibition in vivo at 50 mg/kg (Mus musculus [11]): 67%
inhibition in vivo at 25 mg/kg (Mus musculus [13]): 65%
Activity (Salmonella typhimurium): Non-toxic
inhibition in vivo at 10 mg/kg (Mus musculus [21]): 50%
Activity [23]: Non-toxic

Ki (Histamine H4 receptor [4]): 3.52 µM
SMILES: CN1CCN(c2nc(N)nc(/C=C/c3cccc(F)c3)n2)CC1
